{"source": "paper PMC6416395", "about": "“B1.12: a novel peptide interacting with the extracellular loop of the EBV oncoprotein LMP1” (Scientific Reports, 2019)", "key": {"[1]": {"system": "B1 peptide (first extracellular loop of LMP1)", "test": "ITC of B1/B1.12 interaction", "type": "binding, Epstein-Barr virus (EBV)", "settings": "30 °C, NaHCO3 buffer 0.1 M pH 5.7", "description": "For ITC, analysis was performed at 30 °C using an isothermal titration calorimeter (VP-ITC, LLC Microcal Inc., Northampton, MA, USA). Peptides were suspended in NaHCO3 buffer (0.1 M, pH 5.7, after 2 hours of sample equilibration) and the reference cell was filled with the same buffer. B1 peptide (0.2 mM) was placed into 250 μL syringe and 1200 μL of B1.12 peptide (0.01 mM) was placed in the titration cell. The peptide solution was injected into the stirred sample cell containing B1.12 peptide in >20 injections (2 μL per injection) by a computer-controlled pump. The injection lasted 10 seconds with an interval of 120 seconds between successive injections. Heat released with each injection was measured (Differential Potential in µCal/sec) by the calorimeter in dynamic correction mode. Control experiments were performed by tittering the B1 peptide into the buffer solution at the same pH and concentrations with and without the B1 peptide, in order to discriminate the interaction process against the dilution of B1 and its possible self-association, respectively."}, "B1 peptide": {"system": "B1 peptide", "test": "Competitive inhibition of phage B1.12 binding to B1 peptide", "set-up": "species or system Epstein-Barr virus (EBV)", "settings": "B1.12 phage 2 × 10^10 pfu, room temperature 1 hour", "description": "Binding of the B1.12 peptide to its target B1 and to HeLa/LMP1 cells was evaluated by a competitive binding assay. […] Then the B1.12 phage (2 × 10^10 pfu) was added to each well and incubated for 1 hour. After washing, the bound phage was detected by the anti-M13 antibody as described previously. For the competition test on HeLa cells expressing or not the viral oncoprotein LMP1, cells were seeded into 96-well plates (10^4 cells/well), washed twice in PBS, and fixed with 4% paraformaldehyde for 30 minutes at room temperature. Synthetic peptides at concentrations of 50, 75, 100 and 200 µM were incubated with the cells at 37 °C for 1 hour and the experiment was carried out as described above. All experiments were done in triplicate and the mean values of OD were used to calculate the rate of competitive inhibition according to the following formula: inhibition ratio = (OD control − OD phage)/OD control × 100, where OD control and OD phage represent the OD450 nm values of phage binding on cells incubated with PBS and with the peptide, respectively."}, "HeLa/LMP1 cells": {"system": "HeLa/LMP1 cells", "test": "Competitive inhibition of phage B1.12 binding to HeLa/LMP1 cells", "type": "cell-based", "settings": "peptide 100 µM, 37 °C 1 hour, triplicate mean", "description": "Binding of the B1.12 peptide to its target B1 and to HeLa/LMP1 cells was evaluated by a competitive binding assay. For competition on B1 as a target, the B1.12 peptide or the unrelated control peptide were incubated at concentrations of 1, 5, 10, 25, 50 and 100 µM with B1 peptide (100 µl of a solution of 1 mg/mL in NaHCO3) at room temperature for 1 hour. Then the B1.12 phage (2 × 10^10 pfu) was added to each well and incubated for 1 hour. After washing, the bound phage was detected by the anti-M13 antibody as described previously. For the competition test on HeLa cells expressing or not the viral oncoprotein LMP1, cells were seeded into 96-well plates (10^4 cells/well), washed twice in PBS, and fixed with 4% paraformaldehyde for 30 minutes at room temperature. Synthetic peptides at concentrations of 50, 75, 100 and 200 µM were incubated with the cells at 37 °C for 1 hour and the experiment was carried out as described above. All experiments were done in triplicate and the mean values of OD were used to calculate the rate of competitive inhibition according to the following formula: inhibition ratio = (OD control − OD phage)/OD control × 100, where OD control and OD phage represent the OD450 nm values of phage binding on cells incubated with PBS and with the peptide, respectively."}, "C666.1 cells": {"system": "C666.1 cells", "test": "Cell cycle analysis, C666.1", "type": "cell-based", "settings": "C666.1, 50 µM peptide", "description": "Cell cycle analysis of C666.1 and HT29 cells was performed using the FXcycleTm PIi/RNnase staining solution (Invitrogen). Briefly, cells (4 × 10^5) were seeded and grown for 24 hours, and then incubated with serum-free RPMI for another 24 hours (starvation) to decrease cell constitutive signaling. After starvation, cells were incubated or not with 50 µM B1.12 peptide (C666.1 and HT29 cells) or control peptide (C666.1 cells) for 48 hours. Following incubation, cells were washed with PBS, trypsinized and centrifuged at 1200 rpm for 5 minutes. The cell pellet was then washed twice with PBS, and cells were fixed with 5 mL of ethanol 70% for 24 hours at 4 °C. Aliquots of 2 × 10^5 ethanol-fixed cells were then centrifuged for 5 minutes at 450 g, washed with PBS, and then resuspended in Propidium Iodide Reagent and incubated for 30 minutes at room temperature, shielded from light. The data were collected and analyzed by an Attune NxT Flow Cytometer (Thermofisher)."}, "A20 (TNFAIP3)": {"system": "A20 (TNFAIP3)", "test": "RT-qPCR A20 expression in C666.1 cells", "type": "cell-based", "settings": "B1.12-treated versus untreated C666.1, RT-qPCR normalised to GAPDH, n = 3 biological replicates", "from_the_text": "Total RNA from C666.1 cells treated or not with B1.12 and control peptides was extracted using TRIzol reagent. cDNA was synthetized using the reverse transcription kit (Invitrogen), and served as a template for detecting A20 gene expression by Real-time quantitative PCR using SYBR Premix Ex Taq (Tli RNase H Plus, Takara) and using CFX96 (Biorad). The housekeeping gene GAPDH was used as an internal control to normalize the expression levels of the gene. The primers used for the amplification of the A20 gene are as follows: forward: 5′-[…]-3′, and reverse: 5′-GGCGAAATTGGAACCTGA TTCCAAACTT-3′. Relative quantification of mRNA expression was performed by the comparative 2−ΔΔct method to calculate the difference between amplifications of A20 and GAPDH. […]"}}, "note": "Entries after “also recorded” stand apart in the source; their conditions may differ. Residues, ends and D or L forms follow the SMILES beside them.", "data": [{"smiles": "CC(C)C[C@H](NC(=O)[C@H](CC(=O)O)NC(=O)[C@H](CC(C)C)NC(=O)[C@@H]1CCCN1C(=O)[C@H](CS)NC(=O)[C@H](C)N)C(=O)N[C@@H](CCCNC(=N)N)C(=O)N[C@@H](CO)C(=O)N1CCC[C@H]1C(=O)N[C@@H](CS)C(=O)NCC(N)=O", "note": "[B1.12] (H-ACPLDLRSPCG-NH2; N-terminus and C-terminus assumed)", "values": [{"measurement": "number of injections after which exothermic binding reaction ceases", "setting": "[1]; 2 μL injections of B1 0.2 mM into B1.12 0.01 mM", "result": "nineteen"}, {"measurement": "binding to target B1 (ITC)", "setting": "[1]; B1 0.2 mM injected into B1.12 0.01 mM", "result": "ITC profile confirmed the binding of the B1.12 peptide to its target B1 peptide"}, {"measurement": "effect on binding of phage B1.12 to target B1", "setting": "B1 peptide; increasing peptide concentration, triplicate", "result": "the inhibition ratio increased gradually"}, {"measurement": "inhibition ratio", "setting": "B1 peptide; peptide 400 µM, triplicate mean", "result": "approximately 43%"}, {"measurement": "inhibition ratio", "setting": "HeLa/LMP1 cells", "result": 45, "unit": "%"}, {"measurement": "cell cycle progression versus untreated (in words)", "setting": "C666.1 cells", "result": "inducing G0/G1 cell cycle arrest"}, {"measurement": "cells in G0/G1 phase", "setting": "C666.1 cells; propidium iodide FACS, 24 h (48 h elsewhere in the source)", "result": 73, "unit": "%"}, {"measurement": "A20 expression level", "setting": "A20 (TNFAIP3)", "result": "the expression of A20 decreased compared to untreated cells; also recorded: the A20 level decreased in the C666.1 cells after B1.12 treatment"}]}]}
